Experimental data published in patent publication US11168086B2, “Methods of synthesizing pyrazine compounds” (Hoffmann-La Roche Inc., priority 2015, dated 2021).

System: HBV
Test: HBV inhibition assay: anti-HBV activity in vitro in HepG2.2.15 cells (extracellular HBV DNA by qPCR)
Format: cell-based
Conditions: Hepatitis B virus, 120 h, five days after compound treatment, extracellular HBV DNA in culture supernatant by qPCR, concentration at which HBV replication is inhibited by 50%
Outline: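 HepG2.2.15 cells (stably carrying HBV genome) treated with half-log serially diluted compounds at 0.5% DMSO final for five days. Extracellular HBV DNA in supernatant quantified by qPCR after Proteinase K digestion; EC50 is concentration giving 50% inhibition of replication.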

Structure (SMILES)	EC50 [nM]
C[C@H]1Cn2ncc(-c3ccc(F)cn3)c2CN1C(=O)Nc1cc(F)c(F)c(F)c1 [Example 198, (6S)-3-(5-fluoro-2-pyridyl)-6-methyl-N-(3,4,5-trifluorophenyl)-6,7-dihydro-4H-pyrazolo[1,5-a]pyrazine-5-carboxamide]	30
C[C@H]1Cn2ncc(N3CC(C(=O)N(C)c4ncco4)CC3=O)c2CN1C(=O)Nc1cc(F)c(F)c(F)c1 (stereo partly drawn) [Example 399, (6S)-6-methyl-3-[4-[methyl(oxazol-2-yl)carbamoyl]-2-oxo-pyrrolidin-1-yl]-N-(3,4,5-trifluorophenyl)-6,7-dihydro-4H-pyrazolo[1,5-a]pyrazine-5-carboxamide]	19
C[C@H]1Cn2ncc(N3C[C@@H](Oc4ncccn4)[C@H](O)C3=O)c2CN1C(=O)Nc1cc(F)c(F)c(F)c1 [Example 428, (6S)-3-[(3S,4R)-3-hydroxy-2-oxo-4-pyrimidin-2-yloxy-pyrrolidin-1-yl]-6-methyl-N-(3,4,5-trifluorophenyl)-6,7-dihydro-4H-pyrazolo[1,5-a]pyrazine-5-carboxamide]	6
C[C@H]1Cn2ncc(N3CCOCC3=O)c2CN1C(=O)Nc1ccc(F)c(Cl)c1 [Example 364, (6S)—N-(3-chloro-4-fluoro-phenyl)-6-methyl-3-(3-oxomorpholin-4-yl)-6,7-dihydro-4H-pyrazolo[1,5-a]pyrazine-5-carboxamide]	28
C[C@H]1[C@H](C)n2ncc(N3CCNC3=O)c2CN1C(=O)Nc1cc(F)c(F)c(F)c1 [Example 273, (6S,7S)-6,7-dimethyl-3-(2-oxoimidazolidin-1-yl)-N-(3,4,5-trifluorophenyl)-6,7-dihydro-4H-pyrazolo[1,5-a]pyrazine-5-carboxamide]	39
O=C(Nc1ccc(F)c(Cl)c1)N1CCn2ncc(N3CC4CC4C3)c2C1 (stereo not drawn) [Example 215, 3-[3-azabicyclo[3.1.0]hexan-3-yl]-N-(3-chloro-4-fluoro-phenyl)-6,7-dihydro-4H-pyrazolo[1,5-a]pyrazine-5-carboxamide]	100
C[C@H]1Cn2ncc(N3CC(C)(C#N)CC3=O)c2CN1C(=O)Nc1cc(F)c(F)c(C(F)F)c1 (stereo partly drawn) [Example 361, (6S)-3-(4-cyano-4-methyl-2-oxo-pyrrolidin-1-yl)-N-[3-(difluoromethyl)-4,5-difluoro-phenyl]-6-methyl-6,7-dihydro-4H-pyrazolo[1,5-a]pyrazine-5-carboxamide]	11
Cc1nc(C2CC(=O)N(c3cnn4c3CN(C(=O)Nc3cc(F)c(F)c(F)c3)[C@@H](C)C4)C2)no1 (stereo partly drawn) [Example 285, (6S)-6-methyl-3-[4-(5-methyl-1,2,4-oxadiazol-3-yl)-2-oxo-pyrrolidin-1-yl]-N-(3,4,5-trifluorophenyl)-6,7-dihydro-4H-pyrazolo[1,5-a]pyrazine-5-carboxamide]	7
CCC1CC(=O)N(c2cnn3c2CN(C(=O)Nc2ccc(F)c(Cl)c2)[C@@H](C)C3)C1 (stereo partly drawn) [Example 302, (6S)—N-(3-chloro-4-fluoro-phenyl)-3-(4-ethyl-2-oxo-pyrrolidin-1-yl)-6-methyl-6,7-dihydro-4H-pyrazolo[1,5-a]pyrazine-5-carboxamide]	20
C[C@H]1Cn2ncc(N3Cc4ccnn4CC3=O)c2CN1C(=O)Nc1cc(F)c(F)c(F)c1 [Example 419, (6S)-6-methyl-3-(6-oxo-4,7-dihydropyrazolo[1,5-a]pyrazin-5-yl)-N-(3,4,5-trifluorophenyl)-6,7-dihydro-4H-pyrazolo[1,5-a]pyrazine-5-carboxamide]	71
C[C@H]1Cn2ncc(N3CC(C(F)(F)F)CC3=O)c2CN1C(=O)Nc1cc(F)c(F)c(F)c1 (stereo partly drawn) [Example 259, (6S)-6-methyl-3-[2-oxo-4-(trifluoromethyl)pyrrolidin-1-yl]-N-(3,4,5-trifluorophenyl)-6,7-dihydro-4H-pyrazolo[1,5-a]pyrazine-5-carboxamide]	23
C[C@H]1Cn2ncc(N3CCCC3=O)c2CN1C(=O)Nc1cc(F)c(F)c(F)c1 [Example 356, (6S)-6-methyl-3-(2-oxopyrrolidin-1-yl)-N-(3,4,5-trifluorophenyl)-6,7-dihydro-4H-pyrazolo[1,5-a]pyrazine-5-carboxamide]	50
